Source: patent publication US4971982A, “Benzopyran derivatives” (Hoffmann-La Roche Inc., priority 1987, dated 1990)

These compounds were tested on potassium channel (assay: potassium channel activating activity: reduction of potassium chloride-induced contractions of rat hepatic portal veins). Conditions: isolated hepatic portal veins, male Sprague-Dawley rats; Krebs solution, 37° C.; further 20 mmol of potassium chloride; isometric tension; read-out: IC50 (concentration of test substance producing a half-maximal reduction of the contractions caused by the potassium chloride).
Description: Hepatic portal veins are removed from male Sprague-Dawley rats and suspended in organ baths under an initial tension of 0.5 g for the isometric recording of tension. The veins are incubated in Krebs solution (consisting of 118 mM of sodium chloride, 25 mM of sodium hydrogen carbonate, 10.5 mM of D-glucose, 4.7 mM of potassium chloride, 0.4 mM of magnesium sulphate, 1.2 mM of potassium dihydrogen phosphate and 2.5 mM of calcium chloride) which is gassed with 95% oxygen and 5% carbon dioxide and maintained at 37° C. After incubation for 0.5 hour to 1 hour a further 20 mmol of potassium chloride is added followed after 0.25 hour to 0.5 hour by increasing concentrations of the test substance. The activity of the test substance is expressed as the IC50 value, which is the concentration of test substance producing a half-maximal reduction of the contractions caused by the potassium chloride.
`CCC1(C)C=C(c2cccc[n+]2[O-])c2cc(C#N)ccc2O1` (centres unmarked) [Compound G, 2-(6-cyano-2-ethyl-2-methyl-2H-1-benzopyran-4-yl)pyridine N-oxide] was tested, and the IC50 was 19 ± 1.2 nM.
For `CC1(C)CC(c2cccc[n+]2[O-])c2cc(C#N)ccc2O1` (centres unmarked) [Compound A, 2-(6-cyano-3,4-dihydro-2,2-dimethyl-2H-1-benzopyran-4-yl)pyridine N-oxide], the IC50 was 160 ± 20 nM.
`CC1(C)C=C(c2ccc(-c3ccccc3)c[n+]2[O-])c2cc(C#N)ccc2O1` [Compound E, 2-(6-cyano-2,2-dimethyl-2H-1-benzopyran-4-yl)-5-phenylpyridine N-oxide] gave an IC50 of 15 ± 0.5 nM.
In the case of `CC(=O)c1ccc2c(c1)C(c1cccc[n+]1[O-])CC(C)(C)O2` (centres unmarked) [Compound D, 2-(6-acetyl-3,4-dihydro-2,2-dimethyl-2H-1-benzopyran-4-yl)pyridine N-oxide], the IC50 is reported as 560 ± 70 nM.
`CC1(C)C=C(c2cccc[n+]2[O-])c2cc(C#N)ccc2O1` [Compound B, 2-(6-cyano-2,2-dimethyl-2H-1-benzopyran-4-yl)pyridine N-oxide] showed an IC50 of 38 ± 2 nM.
`CC1(C)Oc2ccc(C#N)cc2[C@@H](c2cccc[n+]2[O-])[C@@H]1O` (racemic) [Compound F, rac-trans-2-(6-cyano-3,4-dihydro-3-hydroxy-2,2-dimethyl-2H-1-benzopyran-4-yl)pyridine N-oxide] gave an IC50 of 280 ± 30 nM.
`CC1(C)C=C(c2cc(C#N)ccc2O)c2cc(C#N)ccc2O1` [Compound H, 4-(5-cyano-2-hydroxyphenyl)-2,2-dimethyl-2H-1-benzopyran-6-carbonitrile] gave an IC50 of 3100 ± 800 nM.
With `CC1(C)CC(c2cccc[n+]2[O-])c2cc([N+](=O)[O-])ccc2O1` (centres unmarked) [Compound C, 2-(3,4-dihydro-2,2-dimethyl-6-nitro-2H-1-benzopyran-4-yl)pyridine N-oxide] the IC50 was 14 ± 1 nM.
